# Experimental data as given in ChEMBL document CHEMBL1147687, “Identification and characterization of amino-piperidinequinolones and quinazolinones as MCHr1 antagonists” (Bioorg Med Chem Lett, 2006).
# Key:
# [1] = target: T1, Melanin-concentrating hormone receptor 1 (Homo sapiens, UniProt Q99705); assay: Displacement of [125I]MCH from MCHr1 expressed in IMR32 cells; assay type: cell-based, IMR-32
# [2] = target: T1, Melanin-concentrating hormone receptor 1; assay: Inhibition of MCH-mediated calcium release in whole IMR32 cells by FLIPR; assay type: functional, cell-based, IMR-32
# [3] = target: Voltage-gated inwardly rectifying potassium channel KCNH2 (Homo sapiens, UniProt Q12809); assay: Binding affinity to hERG stably transfected in HEK293 cells; assay type: cell-based
# [4] = AUC in DIO mouse plasma at 10 mg/kg; assay type: ADME, organism-based; design: dose 10 mg/kg
# [5] = AUC in DIO mouse brain at 10 mg/kg; assay type: ADME, organism-based; design: dose 10 mg/kg
# [6] = Plasma half life in DIO mouse at 10 mg/kg; assay type: ADME, organism-based; design: dose 10 mg/kg
# [7] = Half life in DIO mouse brain at 10 mg/kg; assay type: ADME, organism-based; design: dose 10 mg/kg
# [8] = Cmax in DIO mouse plasma at 10 mg/kg; assay type: ADME, organism-based; design: dose 10 mg/kg
# [9] = Cmax in DIO mouse brain at 10 mg/kg; assay type: ADME, organism-based; design: dose 10 mg/kg
# [10] = Brain to plasma AUC ratio in DIO mouse at 10 mg/kg; assay type: ADME, organism-based; design: dose 10 mg/kg; details: read-out: Ratio AUC
# T1 sequence (Q99705 whole entry): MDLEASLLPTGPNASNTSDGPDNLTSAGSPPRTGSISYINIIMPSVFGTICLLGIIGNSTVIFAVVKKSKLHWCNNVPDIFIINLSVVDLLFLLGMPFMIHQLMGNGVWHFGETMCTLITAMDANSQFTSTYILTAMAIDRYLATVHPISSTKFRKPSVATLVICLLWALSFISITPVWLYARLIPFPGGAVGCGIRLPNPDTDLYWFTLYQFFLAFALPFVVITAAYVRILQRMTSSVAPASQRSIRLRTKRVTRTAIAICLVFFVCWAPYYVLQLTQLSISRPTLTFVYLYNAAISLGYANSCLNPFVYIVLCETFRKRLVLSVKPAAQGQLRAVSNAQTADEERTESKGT
# Sequence of Voltage-gated inwardly rectifying potassium channel KCNH2 (Q12809 whole entry): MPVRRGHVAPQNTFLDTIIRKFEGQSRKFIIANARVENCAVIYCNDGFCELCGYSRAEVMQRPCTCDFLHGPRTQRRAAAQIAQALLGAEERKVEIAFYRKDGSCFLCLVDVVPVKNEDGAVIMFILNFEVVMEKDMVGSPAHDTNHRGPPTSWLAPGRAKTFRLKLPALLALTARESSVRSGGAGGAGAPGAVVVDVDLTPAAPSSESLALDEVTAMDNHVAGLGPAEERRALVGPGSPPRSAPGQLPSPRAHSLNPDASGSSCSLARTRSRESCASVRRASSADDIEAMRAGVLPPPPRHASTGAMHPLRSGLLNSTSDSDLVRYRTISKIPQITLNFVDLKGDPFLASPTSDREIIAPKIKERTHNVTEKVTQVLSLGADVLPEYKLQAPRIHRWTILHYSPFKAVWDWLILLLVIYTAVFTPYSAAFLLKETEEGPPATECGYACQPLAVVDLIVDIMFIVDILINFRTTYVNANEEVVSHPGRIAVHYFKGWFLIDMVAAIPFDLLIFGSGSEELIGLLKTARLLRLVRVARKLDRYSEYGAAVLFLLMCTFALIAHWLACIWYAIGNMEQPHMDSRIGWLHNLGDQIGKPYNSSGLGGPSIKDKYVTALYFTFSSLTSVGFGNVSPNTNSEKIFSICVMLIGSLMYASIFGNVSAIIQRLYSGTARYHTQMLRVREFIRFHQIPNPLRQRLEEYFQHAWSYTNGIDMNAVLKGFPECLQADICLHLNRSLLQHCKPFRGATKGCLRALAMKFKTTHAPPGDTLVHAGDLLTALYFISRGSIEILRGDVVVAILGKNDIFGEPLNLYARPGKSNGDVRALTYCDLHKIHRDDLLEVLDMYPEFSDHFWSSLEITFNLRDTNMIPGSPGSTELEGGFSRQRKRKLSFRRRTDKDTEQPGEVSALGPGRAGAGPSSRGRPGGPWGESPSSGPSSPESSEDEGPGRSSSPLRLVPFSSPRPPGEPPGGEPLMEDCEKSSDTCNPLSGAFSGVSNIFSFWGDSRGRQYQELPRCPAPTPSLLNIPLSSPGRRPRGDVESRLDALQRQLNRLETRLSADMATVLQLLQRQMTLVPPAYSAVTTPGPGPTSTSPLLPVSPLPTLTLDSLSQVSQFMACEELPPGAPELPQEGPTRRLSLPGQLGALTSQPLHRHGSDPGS
IC50 [1] [nM],IC50 [2] [nM],AUC [4] [ng·h/mL],AUC [5] [ng·h/mL],half-life [6] [h],half-life [7] [h],Cmax [8] [ng/mL],Cmax [9] [ng/mL],Kp [10],Compound,Ki [3] [nM]
5,62,–,–,–,–,–,–,–,O=c1nc(NC2CCN(Cc3ccc4ccccc4c3)CC2)c2cc(Cl)ccc2n1CC(F)(F)F,150
4,26,–,–,–,–,–,–,–,O=c1cc(NC2CCN(Cc3ccc4c(c3)OCO4)CC2)c2cc(Cl)ccc2[nH]1,–
5,62,5100,650,1.6,1.9,2200,230,0.13,Cn1c(=O)nc(NC2CCN(Cc3ccc4c(c3)OCO4)CC2)c2cc(Cl)ccc21,150
97,452,–,–,–,–,–,–,–,COC(=O)c1c(NC2CCN(Cc3ccc4c(c3)OCO4)CC2)c2cc(Cl)ccc2n(C)c1=O,1440
15,20,–,–,–,–,–,–,–,N#Cc1c(NC2CCN(Cc3ccc4c(c3)OCO4)CC2)c2cc(Cl)ccc2[nH]c1=O,420
34,104,–,–,–,–,–,–,–,Cn1c(=O)cc(NC2CCN(Cc3ccc4c(c3)OCO4)CC2)c2cc(OC(F)(F)F)ccc21,1800
12,50,–,–,–,–,–,–,–,CCCCCn1c(=O)nc(NC2CCN(Cc3ccc4c(c3)OCO4)CC2)c2cc(Cl)ccc21,135
0.9,55,–,–,–,–,–,–,–,O=c1cc(NC2CCN(Cc3ccc4ccccc4c3)CC2)c2cc(Cl)ccc2n1Cc1ccccn1,88
12,66,–,–,–,–,–,–,–,Cn1c(=O)nc(NC2CCN(Cc3ccc4ncccc4c3)CC2)c2cc(Cl)ccc21,–
12,194,–,–,–,–,–,–,–,Cn1c(=O)c(C#N)c(NC2CCN(Cc3ccc4ccccc4c3)CC2)c2cc(Cl)ccc21,> 2000
7,72,–,–,–,–,–,–,–,Cn1c(=O)nc(NC2CCN(Cc3ccc4ccccc4c3)CC2)c2cc(Cl)ccc21,160
10,88,–,–,–,–,–,–,–,Cn1c(=O)cc(NC2CCN(C/C=C/c3ccccc3)CC2)c2cc(Cl)ccc21,30
5,100,–,–,–,–,–,–,–,Cn1c(=O)cc(NC2CCN(Cc3ccc4ccccc4c3)CC2)c2cc(Cl)ccc21,215
3,20,–,–,–,–,–,–,–,COc1ccc2c(c1)c(NC1CCN(Cc3ccc4c(c3)OCO4)CC1)cc(=O)n2C,778
24,69,5900,620,1.9,2,1600,160,0.11,Cn1c(=O)c(C#N)c(NC2CCN(Cc3ccc4c(c3)OCO4)CC2)c2cc(Cl)ccc21,–
5,34,–,–,–,–,–,–,–,Cn1c(=O)cc(NC2CCN(Cc3ccc4c(c3)OCO4)CC2)c2cc(OC(F)F)ccc21,> 2000
1.2,20,–,–,–,–,–,–,–,O=c1cc(NC2CCN(Cc3ccc4c(c3)OCO4)CC2)c2cc(Cl)ccc2n1Cc1ccccn1,550
68,136,–,–,–,–,–,–,–,Cn1c(=O)nc(NC2CC3CCC(C2)N3Cc2ccc3c(c2)OCO3)c2cc(Cl)ccc21 (stereo in doubt; 4i),–
0.8,42,–,–,–,–,–,–,–,O=c1cc(NC2CCN(Cc3ccc4c(c3)OCO4)CC2)c2cc(Cl)ccc2n1Cc1ccccc1,280
16,53,–,–,–,–,–,–,–,Cn1c(=O)c(C(=O)N2CCCC2)c(NC2CCN(Cc3ccc4c(c3)OCO4)CC2)c2cc(Cl)ccc21,> 2000
9,53,–,–,–,–,–,–,–,Cn1c(=O)nc(NC2CC3CCC(C2)N3Cc2ccc3c(c2)OCO3)c2cc(Cl)ccc21 (stereo in doubt; 4g),–
1.1,29,2100,730,2.3,2.5,680,200,0.29,O=c1cc(NC2CCN(Cc3ccc4c(c3)OCO4)CC2)c2cc(Cl)ccc2n1Cc1ccncc1,355
2,29,–,–,–,–,–,–,–,O=c1nc(NC2CCN(Cc3ccc4c(c3)OCO4)CC2)c2cc(Cl)ccc2n1CC(F)(F)F,445

Compound,IC50 [1] [nM],IC50 [2] [nM],AUC [4] [ng·h/mL],AUC [5] [ng·h/mL],half-life [6] [h],half-life [7] [h],Cmax [8] [ng/mL],Cmax [9] [ng/mL],Kp [10],Ki [3] [nM]
O=c1nc(NC2CC3CCC(C2)N3Cc2ccc3c(c2)OCO3)c2cc(Cl)ccc2n1CC(F)(F)F (stereo not drawn),4,31,–,–,–,–,–,–,–,120
